Source: patent publication US9617226B2 (AbbVie Deutschland GmbH & Co. KG, priority 2014, dated 2017)

Key:
[1] = biological target: human vasopressin V1a receptor (Homo sapiens (Human), UniProt P37288); assay: Vasopressin V1a receptor binding assay; conditions: selectivity quotient, human V1a vs human V1b
Protocol: The test substances were dissolved in a concentration of 5 mM M in DMSO. Further dilution of these DMSO solutions took place as described for V1b.
The membrane pellet was again homogenized in a High-Pressure-Homogenizer, Polytec 50K at 1500 PSI (Heinemann, Germany) and subsequently taken up in 50 mM Tris-HCl, pH 7.4, homogenized and stored in aliquots frozen in liquid nitrogen at −190° C.
The incubation buffer was: 50 mM Tris, 10 mM MgCl2, 0.1% BSA, pH 7.4.
Duplicate determinations were carried out.
After incubation (60 minutes at room temperature), the samples were processed as described for V1b.
The binding parameters were calculated by nonlinear regression in SAS.

[2] = biological target: human vasopressin V1b receptor (Homo sapiens (Human), UniProt P47901); assay: biochemical
Sequence of human vasopressin V1b receptor (P47901 whole entry): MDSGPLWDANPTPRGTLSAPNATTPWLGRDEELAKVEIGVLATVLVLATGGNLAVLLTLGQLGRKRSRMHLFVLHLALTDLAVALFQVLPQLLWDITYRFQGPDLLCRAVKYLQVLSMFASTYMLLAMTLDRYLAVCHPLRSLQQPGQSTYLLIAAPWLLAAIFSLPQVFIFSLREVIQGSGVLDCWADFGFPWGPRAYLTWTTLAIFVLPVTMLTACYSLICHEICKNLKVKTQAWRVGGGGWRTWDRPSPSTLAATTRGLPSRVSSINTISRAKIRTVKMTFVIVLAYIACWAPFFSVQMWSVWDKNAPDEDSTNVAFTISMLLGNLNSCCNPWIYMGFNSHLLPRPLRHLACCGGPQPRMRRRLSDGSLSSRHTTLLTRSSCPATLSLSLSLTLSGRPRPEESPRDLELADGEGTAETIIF

Sequence of human vasopressin V1a receptor (P37288 whole entry): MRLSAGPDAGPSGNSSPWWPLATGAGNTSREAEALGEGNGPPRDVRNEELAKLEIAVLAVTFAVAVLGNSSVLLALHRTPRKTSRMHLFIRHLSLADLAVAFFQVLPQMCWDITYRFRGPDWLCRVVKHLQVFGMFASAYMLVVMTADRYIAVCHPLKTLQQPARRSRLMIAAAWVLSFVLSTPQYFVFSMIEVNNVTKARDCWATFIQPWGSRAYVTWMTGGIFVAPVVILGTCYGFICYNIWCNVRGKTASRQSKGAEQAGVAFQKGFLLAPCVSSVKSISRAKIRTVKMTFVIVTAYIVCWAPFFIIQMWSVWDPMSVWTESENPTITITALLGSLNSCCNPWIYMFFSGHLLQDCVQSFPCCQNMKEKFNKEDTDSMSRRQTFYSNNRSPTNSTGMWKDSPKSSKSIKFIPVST

For `CC(C)NC(=O)Cn1c(-c2cccc(Cl)c2)nc2ccc([C@H]3C[C@@H](CN4CCOCC4)C3)cc2c1=O` [Example 13, cis-2-[2-(3-Chlorophenyl)-6-[3-(morpholinomethyl)cyclobutyl]-4-oxo-quinazolin-3-yl]-N-isopropyl-acetamide], the “Ki(h-V1a)/Ki(h-V1b)” value [1] was “+++ (>75)” and the Ki [2] was 1 to 10 nM.

`CC(C)NC(=O)Cn1c(-c2cccc(Cl)c2)nc2ccc(C3=CC(CN4CCCCC4)C3)cc2c1=O` (centres unmarked) [Example 1, 2-(2-(3-Chlorophenyl)-4-oxo-6-(3-(piperidin-1-ylmethyl)cyclobut-1-en-1-yl)quinazolin-3(4H)-yl)-N-isopropylacetamide] was tested, and the “Ki(h-V1a)/Ki(h-V1b)” value [1] was “+++ (>75)” and the Ki [2] was 10 to 100 nM.

`C[C@H](NC(=O)Cn1c(-c2cccc(Cl)c2)nc2ccc([C@H]3C[C@@H](CN4CCCCC4)C3)cc2c1=O)C(F)(F)F` [Example 45] was tested, and the “Ki(h-V1a)/Ki(h-V1b)” value [1] was “+++ (>75)” and the Ki [2] was 1 to 10 nM.

For `CC1CCN(C[C@H]2C[C@@H](c3ccc4nc(-c5cccc(Cl)c5)n(CC(=O)NC(C)C)c(=O)c4c3)C2)CC1` [Example 22, cis-2-[2-(3-Chlorophenyl)-6-[3-[(4-methyl-1-piperidyl)methyl]cyclobutyl]-4-oxo-quinazolin-3-yl]-N-isopropyl-acetamide], the “Ki(h-V1a)/Ki(h-V1b)” value [1] was “+++ (>75)” and the Ki [2] was 1 to 10 nM.

For `CC(C)NC(=O)Cn1c(-c2cccc(Cl)c2)nc2ccc([C@H]3C[C@@H](CN(C)C)C3)cc2c1=O` [Example 17, cis-2-[2-(3-Chlorophenyl)-6-[3-(dimethylaminomethyl)cyclobutyl]-4-oxo-quinazolin-3-yl]-N-isopropyl-acetamide], the “Ki(h-V1a)/Ki(h-V1b)” value [1] was “+++ (>75)” and the Ki [2] was 10 to 100 nM.

`CC(C)NC(=O)Cn1c(-c2cccc(Cl)c2)nc2ccc([C@H]3C[C@@H](CN4CC[C@H](F)C4)C3)cc2c1=O` [Example 16, cis-2-[2-(3-Chlorophenyl)-6-[3-[ [(3S)-3-fluoropyrrolidin-1-yl]methyl]cyclobutyl]-4-oxo-quinazolin-3-yl]-N-isopropyl-acetamide] was tested, and the “Ki(h-V1a)/Ki(h-V1b)” value [1] was “+++ (>75)” and the Ki [2] was 1 to 10 nM.

`CC(C)NC(=O)Cn1c(-c2cccc(Cl)c2)nc2ccc([C@H]3C[C@@H](CN4CCC[C@H](O)C4)C3)cc2c1=O` [Example 37, cis-2-[2-(3-Chlorophenyl)-6-[3-[ [(3S)-3-hydroxy-1-piperidyl]methyl]cyclobutyl]-4-oxo-quinazolin-3-yl]-N-isopropyl-acetamide] was tested, and the “Ki(h-V1a)/Ki(h-V1b)” value [1] was “+++ (>75)” and the Ki [2] was 1 to 10 nM.

With `CC(C)(C)NC(=O)Cn1c(-c2cccc(Cl)c2)nc2ccc([C@H]3C[C@@H](CN4CCCCC4)C3)cc2c1=O` [Example 26, cis-N-tert-Butyl-2-[2-(3-chlorophenyl)-4-oxo-6-[3-(1-piperidylmethyl)cyclobutyl]-quinazolin-3-yl]acetamide] the “Ki(h-V1a)/Ki(h-V1b)” value [1] was “+++ (>75)” and the Ki [2] was less than 1 nM.

`CC(C)NC(=O)Cn1c(-c2cccc(Cl)c2)nc2ccc([C@H]3C[C@@H](CN4CCC(C(F)(F)F)CC4)C3)cc2c1=O` [Example 38, cis-2-[2-(3-Chlorophenyl)-4-oxo-6-[3-[[4-(trifluoromethyl)-1-piperidyl]methyl]cyclobutyl]quinazolin-3-yl]-N-isopropyl-acetamide] was tested, and the “Ki(h-V1a)/Ki(h-V1b)” value [1] was “+++ (>75)” and the Ki [2] was 1 to 10 nM.

For `CC(C)NC(=O)Cn1c(-c2cccc(Cl)c2)nc2ccc([C@H]3C[C@@H](CN4CCCOCC4)C3)cc2c1=O` [Example 25, cis-2-[2-(3-Chlorophenyl)-6-[3-(1,4-oxazepan-4-ylmethyl)cyclobutyl]-4-oxo-quinazolin-3-yl]-N-isopropyl-acetamide], the “Ki(h-V1a)/Ki(h-V1b)” value [1] was “+++ (>75)” and the Ki [2] was 1 to 10 nM.

`CC(C)NC(=O)Cn1c(-c2cccc(Cl)c2)nc2ccc([C@H]3C[C@@H](CN4CC=CCC4)C3)cc2c1=O` [Example 18, cis-2-[2-(3-Chlorophenyl)-6-[3-(3,6-dihydro-2H-pyridin-1-ylmethyl)cyclobutyl]-4-oxo-quinazolin-3-yl]-N-isopropyl-acetamide] was tested, and the “Ki(h-V1a)/Ki(h-V1b)” value [1] was “+++ (>75)” and the Ki [2] was 1 to 10 nM.

With `CC(C)NC(=O)Cn1c(-c2cccc(Cl)c2)nc2ccc([C@H]3C[C@@H](CN4CC5(CCOCC5)C4)C3)cc2c1=O` [Example 41, cis-2-[2-(3-Chlorophenyl)-6-[3-(7-oxa-2-azaspiro[3.5]nonan-2-ylmethyl)cyclobutyl]-4-oxo-quinazolin-3-yl]-N-isopropyl-acetamide] the “Ki(h-V1a)/Ki(h-V1b)” value [1] was “+++ (>75)” and the Ki [2] was 1 to 10 nM.

`CC(C)NC(=O)Cn1c(-c2cccc(Cl)c2)nc2ccc([C@H]3C[C@@H](CN4CCC[C@@H](O)C4)C3)cc2c1=O` [Example 33, cis-2-[2-(3-Chlorophenyl)-6-[3-[[(3R)-3-hydroxy-1-piperidyl]methyl]cyclobutyl]-4-oxo-quinazolin-3-yl]-N-isopropyl-acetamide] was tested, and the “Ki(h-V1a)/Ki(h-V1b)” value [1] was “+++ (>75)” and the Ki [2] was 1 to 10 nM.

`CC(C)NC(=O)Cn1c(-c2cccc(Cl)c2)nc2ccc([C@H]3C[C@@H](CN4CCCCCC4)C3)cc2c1=O` [Example 21, cis-2-[6-[3-(Azepan-1-ylmethyl)cyclobutyl]-2-(3-chlorophenyl)-4-oxo-quinazolin-3-yl]-N-isopropyl-acetamide] was tested, and the “Ki(h-V1a)/Ki(h-V1b)” value [1] was “+++ (>75)” and the Ki [2] was 1 to 10 nM.

In the case of `CCN(CC)C[C@H]1C[C@@H](c2ccc3nc(-c4cccc(Cl)c4)n(CC(=O)NC(C)C)c(=O)c3c2)C1` [Example 15, cis-2-[2-(3-Chlorophenyl)-6-[3-(diethylaminomethyl)cyclobutyl]-4-oxo-quinazolin-3-yl]-N-isopropyl-acetamide], the “Ki(h-V1a)/Ki(h-V1b)” value [1] is reported as “+++ (>75)” and the Ki [2] is reported as 10 to 100 nM.

In the case of `CC(C)NC(=O)Cn1c(-c2cccc(Cl)c2)nc2ccc([C@H]3C[C@@H](CN4CC(F)C4)C3)cc2c1=O` [Example 19, cis-2-[2-(3-Chlorophenyl)-6-[3-[(3-fluoroazetidin-1-yl)methyl]cyclobutyl]-4-oxo-quinazolin-3-yl]-N-isopropyl-acetamide], the “Ki(h-V1a)/Ki(h-V1b)” value [1] is reported as “+++ (>75)” and the Ki [2] is reported as 1 to 10 nM.

In the case of `O=C(Cn1c(-c2cccc(Cl)c2)nc2ccc([C@H]3C[C@@H](CN4CCCCC4)C3)cc2c1=O)NC1CC1` [Example 27, cis-2-[2-(3-Chlorophenyl)-4-oxo-6-[3-(1-piperidylmethyl)cyclobutyl]quinazolin-3-yl]-N-cyclopropyl-acetamide], the “Ki(h-V1a)/Ki(h-V1b)” value [1] is reported as “+++ (>75)” and the Ki [2] is reported as 10 to 100 nM.

In the case of `CC(C)NC(=O)Cn1c(-c2cccc(Cl)c2)nc2ccc([C@H]3C[C@@H](CN4CC5(COC5)C4)C3)cc2c1=O` [Example 31, cis-2-[2-(3-Chlorophenyl)-6-[3-(6-oxa-2-azaspiro[3.3]heptan-2-ylmethyl)cyclobutyl]-4-oxo-quinazolin-3-yl]-N-isopropyl-acetamide], the “Ki(h-V1a)/Ki(h-V1b)” value [1] is reported as “+++ (>75)” and the Ki [2] is reported as 1 to 10 nM.

In the case of `CC(C)NC(=O)Cn1c(-c2cccc(Cl)c2)nc2ccc([C@H]3C[C@@H](CN4C5CCC4CC(O)C5)C3)cc2c1=O` (relative stereo) [Example 23, cis-2-[2-(3-Chlorophenyl)-6-[3-[(3-hydroxy-8-azabicyclo[3.2.1]octan-8-yl)methyl]cyclobutyl]-4-oxo-quinazolin-3-yl]-N-isopropyl-acetamide], the “Ki(h-V1a)/Ki(h-V1b)” value [1] is reported as “+++ (>75)” and the Ki [2] is reported as 1 to 10 nM.

`CC(C)NC(=O)Cn1c(-c2cccc(Cl)c2)nc2ccc([C@H]3C[C@H](CN4CCCCC4)C3)cc2c1=O` [Example 2b, trans-2-[2-(3-chlorophenyl)-4-oxo-6-[3-(1-piperidylmethyl)cyclobutyl]quinazolin-3-yl]-N-isopropyl-acetamide] was tested, and the “Ki(h-V1a)/Ki(h-V1b)” value [1] was “+++ (>75)” and the Ki [2] was 10 to 100 nM.

For `O=C(Cn1c(-c2cccc(Cl)c2)nc2ccc([C@H]3C[C@@H](CN4CCCCC4)C3)cc2c1=O)NCC1CC1` [Example 29, cis-2-[2-(3-Chlorophenyl)-4-oxo-6-[3-(1-piperidylmethyl)cyclobutyl]quinazolin-3-yl]-N-(cyclopropylmethyl)acetamide], the “Ki(h-V1a)/Ki(h-V1b)” value [1] was “+++ (>75)” and the Ki [2] was 10 to 100 nM.

In the case of `COC1CCN(C[C@H]2C[C@@H](c3ccc4nc(-c5cccc(Cl)c5)n(CC(=O)NC(C)C)c(=O)c4c3)C2)CC1` [Example 10, cis-2-[2-(3-Chlorophenyl)-6-[3-[(4-methoxy-1-piperidyl)methyl]cyclobutyl]-4-oxo-quinazolin-3-yl]-N-isopropyl-acetamide], the “Ki(h-V1a)/Ki(h-V1b)” value [1] is reported as “+++ (>75)” and the Ki [2] is reported as 1 to 10 nM.

For `CC(C)NC(=O)Cn1c(-c2cccc(Cl)c2)nc2ccc(C3CC3CCN3CCCCC3)cc2c1=O` (centres unmarked) [Example 3, 2-[2-(3-Chlorophenyl)-4-oxo-6-[2-[2-(1-piperidyl)ethyl]cyclopropyl]quinazolin-3-yl]-N-isopropyl-acetamide], the “Ki(h-V1a)/Ki(h-V1b)” value [1] was “++ (25-75)” and the Ki [2] was 10 to 100 nM.

With `C[C@@H](NC(=O)Cn1c(-c2cccc(Cl)c2)nc2ccc([C@H]3C[C@@H](CN4CCCCC4)C3)cc2c1=O)C(F)(F)F` [Example 46] the “Ki(h-V1a)/Ki(h-V1b)” value [1] was “++ (25-75)” and the Ki [2] was 10 to 100 nM.

With `CC(C)NC(=O)Cn1c(-c2cccc(Cl)c2)nc2ccc([C@H]3C[C@@H](CN4CCC(O)CC4)C3)cc2c1=O` [Example 32, cis-2-[2-(3-Chlorophenyl)-6-[3-[(4-hydroxy-1-piperidyl)methyl]cyclobutyl]-4-oxo-quinazolin-3-yl]-N-isopropyl-acetamide] the “Ki(h-V1a)/Ki(h-V1b)” value [1] was “+++ (>75)” and the Ki [2] was 10 to 100 nM.

In the case of `CC(C)NC(=O)Cn1c(-c2cccc(Cl)c2)nc2ccc([C@H]3C[C@@H](CN4CCCC(F)C4)C3)cc2c1=O` (relative stereo) [Example 39, cis-2-[2-(3-Chlorophenyl)-6-[3-[(3-fluoro-1-piperidyl)methyl]cyclobutyl]-4-oxo-quinazolin-3-yl]-N-isopropyl-acetamide], the “Ki(h-V1a)/Ki(h-V1b)” value [1] is reported as “+++ (>75)” and the Ki [2] is reported as 1 to 10 nM.

`CC(C)NC(=O)Cn1c(-c2cccc(Cl)c2)nc2ccc([C@H]3C[C@@H](CN4CC(O)C4)C3)cc2c1=O` [Example 40, cis-2-[2-(3-Chlorophenyl)-6-[3-[(3-hydroxyazetidin-1-yl)methyl]cyclobutyl]-4-oxo-quinazolin-3-yl]-N-isopropyl-acetamide] showed a Ki [2] of 1 to 10 nM.
